The values that follow come from US20060094645A1, “Method for defining and treating chemically-induced immune disorders using tumor necrosis factor (TFNalpha), interleukin-1 (lL-1), and interleulin-6R(lL-6R) antagonists” (priority 2004, published 2006).

This assay addresses T1, TNF (Homo sapiens, UniProt P01375).
T1 construct: endogenous in cells; host or cells: the patients' own TNF in vivo
The assay can be described thus: Case report: Arthritis and Vasculitis associated with silicone breast implants, anti-TNF treatment. The format is in vivo. As to conditions: patient after implant removal; earlier treatment for over 20 years with corticosteroids and methotrexate.

T1 sequence (P01375 77-233 limits assumed): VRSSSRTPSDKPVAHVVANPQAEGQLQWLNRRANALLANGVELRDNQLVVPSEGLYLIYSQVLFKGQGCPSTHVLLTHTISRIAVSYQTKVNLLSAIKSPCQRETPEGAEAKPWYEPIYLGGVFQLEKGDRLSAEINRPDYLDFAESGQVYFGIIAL

In the case of `CN(Cc1cnc2nc(N)nc(N)c2n1)c1ccc(C(=O)N[C@@H](CCC(=O)O)C(=O)O)cc1` [methotrexate], the “outcome of Arthritis and Vasculitis associated with silicone breast implants” value is listed as “without success”.
